Measured values reported in BindingDB's records for patent US20260014133 (St. Jude''s Chidren''s Research Hospital, Inc., 2026).

Target: DNA damage-binding protein 1/Protein cereblon (Homo sapiens, UniProt Q96SW2)
Assay: CRBN Fluorescence Polarization Assay
Experimental: In this competitive fluorescent polarization assay Cy5 conjugated lenalidomide analog (Cy5-O-Len)13 was used as a fluorescent probe. 6×His-CRBN-DDB1 protein (200 nM) and Cy5-O-Len probe (30 nM) were combined in 20 mM HEPES pH 7, 150 mM NaCl, 0.005% Tween-20 assay buffer. 20 μL of this assay cocktail was dispensed into wells of Corning 3821 black 384-well plates. Compounds were transferred to the assay plate from a dose-response plate using a Pintool on a Biomek FXP Laboratory Automation Workstation (Beckman Coulter). The plates were incubated in the dark for 1 hour at room temperature and then read on an Envision plate reader (PerkinElmer, Massachusetts, USA). IC50 values were determined using a proprietary software RISE (Robust Investigation of Screening Experiments), developed in house on the Pipeline Pilot platform (Biovia, v. 17.2.0). Data represent the mean of three independent determinations.

Which IC50 does the source give for `O=C1CCC(N2Cc3cc(NC(=O)Cc4ccccn4)ccc3C2=O)C(=O)N1` (stereo unspecified) [US20260014133, Compound 28] here?
Its IC50 is < 1 µM.
